# Laboratory results as given in US8207154B2, “Catatonic bacteriochlorophyll derivatives” (Yeda Research and Development Co., Ltd., priority 2005, dated 2012).
# Key:
# [1] = Octanol/water partition ratio; type: physicochemical
# Text: Optical absorption in water, λ (relative absorption): 753 (1.00), 519 (0.30), 354 (1.25) nm. Octanol/water partition ratio is 40/60. ESI-MS (+): 413.62 ([M-2×citrate]/2). Octanol/water partition ratio is 50/50. ESI-MS (+): 455.89 ([M-2×citrate]/2). Octanol/water partition ratio is 75/25.
# [2] = Pharmacokinetics in rat blood after i.v. injection (fluorescence); type: in vivo, Wistar rats
# Procedure: (ix) Pharmacokinetics. Anesthetized Wistar rats (n=3 per each time-point) were i.v. injected with compound 5 of the invention (0.6 mg/kg). […] Control blood samples were collected from three untreated rats and treated accordingly. The test tubes containing the blood samples were weighed again in order to calculate the exact sample mass. The blood samples were then frozen in liquid nitrogen and lyophilized. The lyophilized samples were extracted with methanol (1 ml each), vortexed and centrifuged. The supernatant was collected and analyzed by fluorescence measurements (Spectrofluorimeter SLM-8000, Aminco USA). The fluorescence emission spectra were recorded in a range of 650-850 nm, with excitation at 520 nm. Fluorescence of methanol and untreated blood extracts were used as blanks. A calibration curve with known concentrations of the sensitizer was prepared.
# [3] = Biodistribution in rat organs and tissues (fluorescence); type: in vivo, Wistar rats; details: 0.6 mg/kg i.v.
# Procedure: (x) Biodistribution. Wistar rats (n=2) were anesthetized and compound 5 of the invention (0.6 mg/kg) was injected into their tail vein. The control group (n=2) was not treated with the sensitizer. At 30 min and 24 h after injection, rats (one for each time-point), were sacrificed and samples of the indicated organs or tissues (heart, liver, lung, spleen, kidney, brain, testes, skin, muscle and fat) were collected into and weighed in pre-weighted vials, immediately frozen on dry ice and stored at […] in the dark until analyzed. For examination, each sample was thawed, weighed again, and homogenized (Polytron, Kinematica GmbH or Ultra-Turrax) in ice-cold water. The vials were then frozen in liquid nitrogen and lyophilized. The lyophilized samples were extracted with methanol (5-10 ml) in an amount equivalent to the tissue weight, and then vortexed and centrifuged. The supernatant was collected and analyzed and fluorescence measured as described in (ix) above. The fluorescence of methanol and of tissue extracts from control animals were used as blanks.
# E. coli = experiment: Phototoxicity on Gram-negative bacteria, colony counting; type: cell-based, E. coli XL-1
# Procedure: (ii) Bacterial cultures. Bacteria of strains St. albus and E. coli XL-1 were cultured in liquid LB medium (E. coli in LB containing 12.5 μg tetracyclin/ml) to a final density of OD600 nm=0.5-0.9 (1 OD=8×10^8 bacteria/ml). The bacteria were spun down (4000×g, 5 min.) and resuspended in PBS.
# (b) Bacterial. To determine the photodynamic efficacy, bacteria were diluted to aliquots of 300 μl containing about 10^7 bacteria, and incubated with increasing concentrations of sensitizer in plastic test tubes in the dark for 1 h at room temperature, and then illuminated at 70 mW/cm^2 for 15 min. Samples of the treated bacteria cultures were subsequently plated at different dilutions (50-200 bacteria/plate) on LB agar and cultured for 24 h at 37° C. for determination of bacterial survival by colony counting. Triplicate determinations were conducted and representative experiments are shown.
# The phototoxicity of positively-charged compound 5 was tested on Gram-positive St. albus and Gram-negative E. coli bacteria in comparison to the negatively-charged Pd 3^1-oxo-15-methoxycarbonylmethyl-Rhodobacteriochlorin 13^1-(2-sulfoethyl)amide dipotassium salt (described in PCT/IL03/00973). Bacteria were incubated with increasing concentrations of the sensitizers for 1 h and illuminated or kept in the dark. […] Gram-positive bacteria St. albus, was 100 times more sensitive to compound 5 than Gram-negative E. coli. No phototoxicity was observed when bacteria were incubated and treated with the same sensitizers' concentration range without illumination (dark controls).
# [4] = biological target: human serum albumin (HSA) (Homo sapiens, UniProt P02768); experiment: Interaction with human serum albumin (aggregation state, spectrophotometric); type: binding; details: in PBS, 3.2×10^−4 M, 0.1-5 mg HSA
# Sequence of human serum albumin (HSA) (P02768 25-609): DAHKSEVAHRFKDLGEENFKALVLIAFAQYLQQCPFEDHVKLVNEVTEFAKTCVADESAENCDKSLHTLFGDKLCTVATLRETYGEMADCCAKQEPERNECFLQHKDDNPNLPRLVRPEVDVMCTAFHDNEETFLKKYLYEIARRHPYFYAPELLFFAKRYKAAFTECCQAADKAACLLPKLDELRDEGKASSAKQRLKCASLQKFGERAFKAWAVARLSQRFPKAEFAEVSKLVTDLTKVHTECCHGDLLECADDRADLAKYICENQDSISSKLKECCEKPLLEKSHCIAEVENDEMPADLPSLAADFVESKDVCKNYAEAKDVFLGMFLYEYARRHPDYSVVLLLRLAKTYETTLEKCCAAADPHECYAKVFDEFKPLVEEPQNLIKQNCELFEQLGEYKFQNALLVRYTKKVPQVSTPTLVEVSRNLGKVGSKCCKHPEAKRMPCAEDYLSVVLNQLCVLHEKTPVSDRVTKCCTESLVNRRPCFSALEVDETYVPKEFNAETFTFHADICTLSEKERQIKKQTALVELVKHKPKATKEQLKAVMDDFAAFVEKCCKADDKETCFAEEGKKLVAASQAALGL
# Procedure: A solution of 5 in PBS (3.2×10^−4 M, 100 μl) was mixed with various amounts of human serum albumin (0.1, 0.5, 1, 2, and 5 mg). Aggregation, at high concentrations of 5 in aqueous solutions, is reflected by splitting of the original monomeric peak at 747 nm into two new peaks at 720 and 760 nm. The state of aggregation was followed spectrophotometrically over the range of albumin concentrations at room temperature in a 0.1 mm cuvette. The absorbance intensity values at the peak wavelengths were taken as an indication of the aggregation.
# Addition of the albumin caused disaggregation of the sensitizer 5 in PBS (FIG. 2). The absorption spectra of the solutions containing increasing amounts of albumin resembled the spectrum of the monomeric pigment 5 in methanol.
substance,measurement,setting,value
"3^1-Oxo-15-methoxycarbonylmethyl-Rhodo-bacteriochlorin 13^1,17^3-di(2-N^3-trimethylammoniumethyl)amide dicitrate salt [Compound 5]",Octanol/water partition ratio,[1]; dicitrate salt,40/60
same,Octanol/water partition ratio,"[1]; listed as 2, dicitrate salt",75/25
same,clearance kinetics,[2]; 24 h after i.v. administration,bicompartmental distribution
same,sensitizer cleared,[2]; within 30 min after i.v. injection (0.6 mg/kg),about 60%
same,levels of the sensitizer in organs,[3]; 30 min after injection,"relatively high in the blood, kidneys and lungs"
same,level of the sensitizer in the blood,[3]; 24 h after injection,almost background level
same,levels of the sensitizer in organs,[3]; 24 h after injection,"significant levels were still found in the kidneys, liver and spleen"
same,death of E. coli,"E. coli; 10 μM, illuminated",~100%
same,phototoxic concentration,"E. coli; 1 h incubation, illuminated 15 min at 70 mW/cm^2, read-out: Kd (phototoxicity)",1700 nM
same,aggregation state on addition of albumin,[4],disaggregation
